Assay [1] deals with Carbonic anhydrase 9 (Homo sapiens, UniProt Q16790). The experiment in a line: Inhibition of recombinant human carbonic anhydrase 9 incubated for 15 mins prior to testing measured for 10 to 100 secs by phenol red-based stopped-flow CO2 hydration assay.
In assay [2] the test system is HepG2. The experiment in a line: Cytotoxicity against human HepG2 cells assessed as reduction in cell viability by MTT assay. The class given is functional, cell-based.
Assay [3] relates to HCT-116. The assay can be described thus: Cytotoxicity against human HCT-116 cells assessed as reduction in cell viability by MTT assay. Format: functional, cell-based.
In assay [4] the test system is MCF7. The assay can be described thus: Cytotoxicity against human MCF7 cells assessed as reduction in cell viability irradiated with 8 Gy gamma radiation and measured after 24 hrs by MTT assay. Format: functional, cell-based. Conditions: MCF7, light or radiation study.
Assay [5] has as its system HCT-116. The assay can be described thus: Cytotoxicity against human HCT-116 cells assessed as reduction in cell viability irradiated with 8 Gy gamma radiation and measured after 24 hrs by MTT assay. Format: functional, cell-based. To be noted: HCT-116, light or radiation study.
The subject of assay [6] is MCF7. The assay can be described thus: Cytotoxicity against human MCF7 cells assessed as reduction in cell viability by MTT assay. Format: functional, cell-based.
The test system of assay [7] is HepG2. The assay can be described thus: Cytotoxicity against human HepG2 cells assessed as reduction in cell viability irradiated with 8 Gy gamma radiation and measured after 24 hrs by MTT assay. The class given is functional, cell-based. Conditions: HepG2, light or radiation study.
The test system of assay [8] is WI-38. The assay can be described thus: Cytotoxicity against human WI-38 cells assessed as reduction in cell viability by MTT assay. Format: cell-based.
Assay [9] concerns WI-38. The assay can be described thus: Cytotoxicity against human WI-38 cells assessed as reduction in cell viability irradiated with 8 Gy gamma radiation and measured after 24 hrs by MTT assay. The class given is cell-based. To be noted: WI-38, light or radiation study.

The structures appear in SMILES notation.

Turning to `CCc1cccc(NC(=O)CSc2nc3ccc(I)cc3c(=O)n2-c2ccc(S(N)(=O)=O)cc2)c1`, the Ki in assay [1] turned out to be 55.2 nM.
Consider `COc1cc(NC(=O)CSc2nc3ccc(I)cc3c(=O)n2-c2ccc(S(N)(=O)=O)cc2)cc(OC)c1`, for which the Ki in assay [1] came to 29.1 nM.
On the same count and under the same terms, under `COc1cc(NC(=O)CSc2nc3ccc(I)cc3c(=O)n2-c2ccc(S(N)(=O)=O)cc2)cc(OC)c1OC` stands 30.4 nM; under `Cc1cc([N+](=O)[O-])ccc1NC(=O)CSc1nc2ccc(I)cc2c(=O)n1-c1ccc(S(N)(=O)=O)cc1`, 59.1 nM.
The same measure, in the same setting: under `Cc1ccccc1NC(=O)CSc1nc2ccc(I)cc2c(=O)n1-c1ccc(S(N)(=O)=O)cc1` stands 429 nM; under `CCOc1ccc(NC(=O)CSc2nc3ccc(I)cc3c(=O)n2-c2ccc(S(N)(=O)=O)cc2)cc1`, 34.5 nM.
The same measure, in the same setting: under `Cc1cccc([N+](=O)[O-])c1NC(=O)CSc1nc2ccc(I)cc2c(=O)n1-c1ccc(S(N)(=O)=O)cc1` stands 90.3 nM; under `CCc1ccc(NC(=O)CSc2nc3ccc(I)cc3c(=O)n2-c2ccc(S(N)(=O)=O)cc2)cc1`, 67.3 nM; under `NS(=O)(=O)c1ccc(-n2c(SCC(=O)Nc3ccccc3)nc3ccc(I)cc3c2=O)cc1`, 337 nM.
Turning to `CCc1ccccc1NC(=O)CSc1nc2ccc(I)cc2c(=O)n1-c1ccc(S(N)(=O)=O)cc1`, the IC50 in [2] stood at 1780 nM; in assay [3], 1940 nM; in assay [4], 31 nM; in assay [5], 19 nM; in assay [6], 3070 nM; in assay [7] it was 41 nM. Moreover, the IC50 in assay [8] was 5710 nM; in assay [9], 3140 nM. Also, in assay [1], the Ki amounted to 29.1 nM.
As to `NS(=O)(=O)c1ccc(-n2c(S)nc3ccc(I)cc3c2=O)cc1`, the Ki in assay [1] stood at 2230 nM.
The same measure, in the same setting: to `Cc1cccc(NC(=O)CSc2nc3ccc(I)cc3c(=O)n2-c2ccc(S(N)(=O)=O)cc2)c1` belongs 244 nM; to `COc1ccc(NC(=O)CSc2nc3ccc(I)cc3c(=O)n2-c2ccc(S(N)(=O)=O)cc2)cc1`, 73.2 nM.
Take `Cc1ccc(NC(=O)CSc2nc3ccc(I)cc3c(=O)n2-c2ccc(S(N)(=O)=O)cc2)cc1`: the Ki in assay [1] amounted to 91.7 nM.
Same read-out and setting: to `NS(=O)(=O)c1ccc(-n2c(SCC(=O)Nc3ccc([N+](=O)[O-])cc3[N+](=O)[O-])nc3ccc(I)cc3c2=O)cc1` belongs 46.9 nM.
